Results: US20100181035A1, “GLUCOSYLTRANSFERASES” (UNIVERSITY OF YORK, priority 2003, published 2010)

Tests used:
[1] = target: T1, glucosyltransferase 72E1 (UGT72E1) (Arabidopsis thaliana, UniProt Q94A84); test: Glucosyltransferase activity assay with recombinant UGT72E1, HPLC analysis; type: biochemical; conditions: substrate glucosylation; 2 μg enzyme, 1 mM phenolic substrate, 5 mM UDP-glucose, 100 mM Tris-HCl pH 7.0, 30° C., 1 h; HPLC peak area
T1 construct: made in house; host or cells: E. coli
T1 sequence (Q94A84 1-487): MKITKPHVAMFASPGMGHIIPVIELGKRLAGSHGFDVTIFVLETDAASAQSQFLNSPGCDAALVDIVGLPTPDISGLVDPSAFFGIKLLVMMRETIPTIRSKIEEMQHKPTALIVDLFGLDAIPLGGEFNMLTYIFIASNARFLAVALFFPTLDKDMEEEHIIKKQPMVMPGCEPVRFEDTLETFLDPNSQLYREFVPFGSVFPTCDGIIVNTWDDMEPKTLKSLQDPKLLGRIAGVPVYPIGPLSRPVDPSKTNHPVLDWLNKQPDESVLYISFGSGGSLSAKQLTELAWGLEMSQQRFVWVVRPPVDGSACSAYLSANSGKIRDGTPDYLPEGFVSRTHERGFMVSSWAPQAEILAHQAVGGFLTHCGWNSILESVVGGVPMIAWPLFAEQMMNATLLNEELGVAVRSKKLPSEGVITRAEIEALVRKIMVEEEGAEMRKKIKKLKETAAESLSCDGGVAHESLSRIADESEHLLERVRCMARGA
Description: Recombinant UGT72E1 was expressed and purified from E. coli as described previously (Lim et al., 2001, J. Biol. Chem. 276, 4344-4349). The enzyme (2 μg) was incubated with 1 mM phenolic substrates, 5 mM UDP-glucose, 100 mM Tris-HCl, pH 7.0 in a total volume 200 μl. The reaction mix was incubated at 30° C. for 1 h and was analysed using HPLC subsequently.
Coniferyl alcohol: 10-25% acetonitrile (0.1% TFA), 306 nm Sinapyl alcohol: 10-25% acetonitrile (0.1% TFA), 285 nm p-coumaryl alcohol: 10-25% acetonitrile (0.1% TFA), 311 nm coniferyl aldehyde: 10-47% acetonitrile (0.1% TFA), 311 nm sinapyl aldehyde: 10-47% acetonitrile (0.1% TFA), 280 nm p-coumaryl aldehyde: 10-47% acetonitrile (0.1% TFA), 315 nm

[2] = target: T2, glucosyltransferase 72E2 (UGT72E2) (Arabidopsis thaliana, UniProt Q9LVR1); test: Glucosyltransferase activity assay with 72E2, HPLC analysis; type: biochemical; conditions: substrate glucosylation; HPLC peak area; conditions for UGT72E1: 1 mM substrate, 5 mM UDP-glucose, pH 7.0, 30° C., 1 h
T2 sequence (Q9LVR1 1-481): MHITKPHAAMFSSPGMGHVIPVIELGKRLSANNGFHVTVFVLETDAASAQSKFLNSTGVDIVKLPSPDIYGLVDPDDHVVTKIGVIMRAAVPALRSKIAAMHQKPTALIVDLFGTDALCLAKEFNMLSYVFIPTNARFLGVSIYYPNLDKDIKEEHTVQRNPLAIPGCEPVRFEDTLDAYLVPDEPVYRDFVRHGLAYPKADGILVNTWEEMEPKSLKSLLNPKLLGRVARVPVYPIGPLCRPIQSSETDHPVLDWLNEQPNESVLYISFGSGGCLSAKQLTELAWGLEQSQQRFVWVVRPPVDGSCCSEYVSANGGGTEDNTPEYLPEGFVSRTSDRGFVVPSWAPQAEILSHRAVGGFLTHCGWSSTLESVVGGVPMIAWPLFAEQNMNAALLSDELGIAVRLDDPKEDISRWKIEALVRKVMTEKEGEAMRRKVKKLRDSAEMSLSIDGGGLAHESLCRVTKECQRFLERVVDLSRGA

Row | Structure (SMILES) | Activity (area, uv × sec) 72E1 [1] [uv × sec] | Activity (area, uv × sec) 72E2 [2] [uv × sec]
1 | COc1cc(/C=C/C=O)ccc1O [Coniferyl aldehyde] | 21950129 | 5068215
2 | OC/C=C/c1ccc(O)cc1 [p-coumaryl alcohol] | 0 | 0
3 | COc1cc(/C=C/CO)cc(OC)c1O [Sinapyl alcohol] | 0 | 3339410
4 | COc1cc(/C=C/CO)ccc1O [Coniferyl alcohol] | 3225766 | 29756923
5 | O=C/C=C/c1ccc(O)cc1 [p-coumaryl aldehyde] | 9243651 | 2612331
6 | COc1cc(/C=C/C=O)cc(OC)c1O [Sinapyl aldehyde] | 13655427 | 37002362
